The target in assay [1] is T1, CRHR1 (Mus musculus, UniProt P35347).
T1 sequence (P35347 24-415): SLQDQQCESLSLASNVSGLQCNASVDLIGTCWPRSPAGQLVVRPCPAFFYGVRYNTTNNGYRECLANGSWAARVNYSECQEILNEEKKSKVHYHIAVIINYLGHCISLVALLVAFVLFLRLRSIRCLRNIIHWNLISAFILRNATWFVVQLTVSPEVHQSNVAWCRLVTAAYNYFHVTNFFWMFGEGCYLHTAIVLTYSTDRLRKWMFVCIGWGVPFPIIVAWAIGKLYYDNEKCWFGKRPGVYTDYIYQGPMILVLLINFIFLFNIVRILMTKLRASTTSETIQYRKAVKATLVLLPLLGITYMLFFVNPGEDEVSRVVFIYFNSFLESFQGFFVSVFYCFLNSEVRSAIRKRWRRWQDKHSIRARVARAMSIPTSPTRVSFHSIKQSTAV
Put plainly: Inhibitory events in rdLS neurons before and after tetanic light stimulation of ILA CRH fibers, with or without antagonist. It counts as cell-based, mice. Conditions: 300 nM antalarmin in the bath.
From the text: The inventors prepared coronal brain slices from 8- to 12-week-old C57BL6/J mice. Animals were killed under isoflurane anesthesia by perfusion into the right ventricle of ice-cold solution containing the following (in mM): 125 NaCl, 2.5 KCI, 22.5 glucose, 25 NaHCOs, 1.25 NaH2PO4, 3 Na Pyruvate, 1 Ascorbic acid, 2 CaCl2 and 1 MgCl2). ACSF was saturated with 95% O2 and 5% CO2, pH 7.4. Brains were cut into 400 µm slices with a vibratome (VT1200S, Leica) in the same ice-cold dissection solution. Slices were then transferred to an incubation chamber containing the same ACSF solution. The chamber was kept at 34°C for 30 min and then at room temperature for at least 1 h before recording. All experiments were performed at room temperature. Slices were mounted in the recording chamber under a microscope. Recordings were acquired using the Multiclamp 700A amplifier (Molecular Device), data acquisition interface ITC-18 (Instrutech) and the Axograph software. […] Inhibitory currents were recorded in voltage-clamp configuration at +10 mV. […] LS neurons from WT mice were also recorded. […]
The inventors expressed channel rhodopsin in ILA^CRH neurons and prepared rdLS slices (Fig. 15F). The inventors obtained whole-cell recordings of rdLS neurons and recorded spontaneous inhibitory events (sIPSC) before and after applying a tetanic light stimulation. […]

Assay [2] concerns CRHR1. Put plainly: Social novelty preference test after cannula infusion in rdLS. It counts as in vivo, C57BL/6J wild-type mice. Conditions: 2 µg of antalarmin in 0.6 µL of DMSO infused in rdLS.
From the text: The mouse scalp was removed and scored before a hole was drilled (AP +0.9, ML ±0). A cannula guide extending 2.4 mm below the pedestal (Plastics One #C315G 2-G11-SPC) was lowered slowly and kept in place using superglue. The skull was then covered with dental cement (GC FujiCEM 2) and dummy cannulas (Plastics One #C315DC-SPC) were inserted into the guides. The mice were returned to their home cages and left to recover for at least 1 week. For rdLS infusion, mice were placed under light isoflurane anesthesia (2%) and the dummy cannula was removed. A cannula (Plastics One #C315I-SPC) projecting 2.5 mm from the tip of the cannula guide was mounted. […]
Social novelty preference test. […] Using automatic tracking of the test mice (ANY-Maze, Stoelting), the inventors quantified the time the test mice spent in the immediate area surrounding each cup - and therefore, interacting with each stimulus mice - during learning and recall. Using the interaction time from the recall trial, the inventors calculated a discrimination index for social novelty preference as the following: D! = (time with novel - time with familiar) / total interaction time. […] The inventors also calculated the total time spent interacting with stimulus mice during each trial in order to verify that the sociability drive was not affected. […]
Assay [3] relates to GABAA and GABAB receptors. As to the kind of experiment: Light-induced IPSCs in rdLS neurons after stimulation of CRH+ fibers from ILA expressing Channelrhodopsin. The assay is classed as cell-based, mice. Conditions: 2µM SR 95531 and 1µM CGP 55845 applied together; neurons held at +10 mV.
Method: The inventors prepared coronal brain slices from 8- to 12-week-old C57BL6/J mice. […] Brains were cut into 400 µm slices with a vibratome (VT1200S, Leica) in the same ice-cold dissection solution. Slices were then transferred to an incubation chamber containing the same ACSF solution. The chamber was kept at 34°C for 30 min and then at room temperature for at least 1 h before recording. All experiments were performed at room temperature. Slices were mounted in the recording chamber under a microscope. Recordings were acquired using the Multiclamp 700A amplifier (Molecular Device), data acquisition interface ITC-18 (Instrutech) and the Axograph software. The inventors targeted CA2 PNs based somatic location and size in both deep and superficial layer. […] The liquid junction potential was 1.2 mV and was left uncorrected. Inhibitory currents were recorded in voltage-clamp configuration at +10 mV. […] LS neurons from WT mice were also recorded. […] The inventors used the Axograph software for data acquisition, and Excel (Microsoft) and PRISM (Graphpad) for data analysis.
In assay [4] the test system is CRHR1. Put plainly: Whole-cell patch-clamp recordings from rdLS CRHR1 neurons in acute LS slices. The assay is classed as cell-based. Conditions: 300 nM stressin-1, bath application; CRHR1-Cre;Ai9 mice; neurons clamped at -60 mV.
Assay [5] relates to CRHR1. Put plainly: Spontaneous IPSC recording from LS cells in acute slices before and after agonist application. The assay is classed as cell-based, mice. Conditions: 300 nM. The source says:
The inventors prepared coronal brain slices from 8- to 12-week-old C57BL6/J mice. Animals were killed under isoflurane anesthesia by perfusion into the right ventricle of ice-cold solution containing the following (in mM): 125 NaCl, 2.5 KCI, 22.5 glucose, 25 NaHCOs, 1.25 NaH2PO4, 3 Na Pyruvate, 1 Ascorbic acid, 2 CaCl2 and 1 MgCl2). ACSF was saturated with 95% O2 and 5% CO2, pH 7.4. Brains were cut into 400 µm slices with a vibratome (VT1200S, Leica) in the same ice-cold dissection solution. Slices were then transferred to an incubation chamber containing the same ACSF solution. The chamber was kept at 34°C for 30 min and then at room temperature for at least 1 h before recording. All experiments were performed at room temperature. Slices were mounted in the recording chamber under a microscope. Recordings were acquired using the Multiclamp 700A amplifier (Molecular Device), data acquisition interface ITC-18 (Instrutech) and the Axograph software. […] Whole-cell recordings were obtained from LS neurons in voltage-clamp mode at -70 mV patch pipette (3-5 MΩ) containing the following (in mM): 135 Cs-gluconate, 5 KCI, 0.2 EGTA-Na, 10 HEPES, 2 NaCl, 5 ATP, 0.4 GTP, 10 phosphocreatine, and 5 µM biocytin, pH 7.2 (280-290 mOsm). The liquid junction potential was 1.2 mV and was left uncorrected. Inhibitory currents were recorded in voltage-clamp configuration at +10 mV. The inventors recorded rdLS neurons in septal slices from CRH-Cre mice expressing channelrhodopsin and applied 2 µM SR 95531 (Tocris, # 1262) and 1 µM CGP 55845 (Tocris, #1248) to block GABAA and GABAB receptors, respectively while monitoring the light induced IPSCs in rdLS neurons. The inventors also applied a tetanic light stimulation (3 times 100 pulses of 1 ms at 100 Hz) with or without 300 nM antalarmin (Tocris, #2778) present in the bath. LS neurons from WT mice were also recorded. After 10 min of stable baseline recording, stressin-1 (300 nM, Tocris # 1608) was applied following a 1:1000 dilution from stock solution into the ACSF. The inventors used the Axograph software for data acquisition, and Excel (Microsoft) and PRISM (Graphpad) for data analysis.
The inventors prepared acute LS slices from WT mice and recorded spontaneous inhibitory post-synaptic currents (IPSCs) from rdLS cells in whole-cell configuration before applying the CRHR1 agonist stressin-1 (300 nM, Fig. 15A-B). Stressin-1 application for 15 min decreased the frequency and integrated charge of spontaneous IPSCs (Fig. 15B-C and E). […] This effect was not seen when rLS neurons were recorded for 15 min without application of the agonist (Fig. 16 A1-A5).

Setting [6] is: application for 15 min, rdLS cells, WT mice.

This is an account of results in EP4516309A1, “CRHR1 AGONISTS FOR USE IN THE TREATMENT OF SOCIAL ANXIETY DISORDERS” (Consejo Superior de Investigaciones Cientificas, priority 2023, dated 2025).

Turning to `CCCCN(CC)c1nc(C)nc2c1c(C)c(C)n2-c1c(C)cc(C)cc1C` [antalarmin], the “decrease in inhibition (sIPSC frequency, amplitude, charge; elicited IPSC) following light stimulation” value in assay [1] is “blocked the disinhibition”. Further, in assay [2] (recall trial), the “preference for the novel mouse” value is given as “showed no novelty preference”. For the same compound, in assay [2] (vs. DMSO), the “Total exploration time during learning or recall” value is listed as “not different between groups”.

Consider `C[C@H](NC[C@H](O)CP(=O)(O)Cc1ccccc1)c1ccc(Cl)c(Cl)c1` [CGP 55845], for which, in assay [3], the “light-induced IPSCs” value is given as “abolished”.

`COc1ccc(-c2ccc(=N)n(CCCC(=O)O)n2)cc1` [SR 95531]: in assay [3], the “light-induced IPSCs” value is “abolished”.

For stressin-1, in assay [4], the “current in rdLSCRHR1 neurons” value is “induced an inward current”. Besides, in assay [5] (15 min, vLS neurons in posterior LS slices), the “IPSCs of vLS neurons” value is on record as “had no effect”. Also, in assay [5] (setting [6]), the IPSC amplitude result is recorded as “trend toward a decrease”, the “frequency of spontaneous IPSCs” value is on record as “decreased” and the “integrated charge of spontaneous IPSCs” value is recorded as “decreased”.
